Source: the supplement of paper PMC10627819

Test system: S. pneumoniae D39V
Experiment: fitness (endpoint OD595 vs no drug) (fraction); higher = more growth
Method in brief: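 Fitness was defined as the optical density at the transition into stationary phase relative to the robust mean of no-drug control wells. Values were capped at 1. Cultures were started at OD595 0.01 in 384-well plates (30 µl, or 55 µl for S. pneumoniae) in TSB, LB Lennox or CY at 37 °C. OD595 was recorded every 30 min over 14 h, with the first reading subtracted as background.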

CC(=O)Oc1ccccc1C(=O)O [Acetylsalicylic acid] + O=C(O)[C@H]1/C(=C/CO)O[C@@H]2CC(=O)N21 [Clavulanic acid]
fitness
Conditions	first compound 250 µg/mL	first compound 500 µg/mL	first compound 1000 µg/mL
partner 0.5 µg/mL	0.954	0.967	0.696
partner 1 µg/mL	0.902	0.902	0.696
partner 2 µg/mL	0.884	0.819	0.596

CN(C)[C@@H]1C(O)=C(C(N)=O)C(=O)[C@@]2(O)C(O)=C3C(=O)c4c(O)ccc(Cl)c4[C@@](C)(O)[C@H]3C[C@@H]12 [Chlortetracycline] + CO[C@H]1/C=C/O[C@@]2(C)Oc3c(C)c(O)c4c(O)c(c(/C=N/N5CCN(C)CC5)c(O)c4c3C2=O)NC(=O)/C(C)=C\C=C\[C@H](C)[C@H](O)[C@@H](C)[C@@H](O)[C@@H](C)[C@H](OC(C)=O)[C@@H]1C [Rifampicin]
fitness, one replicate
Conditions	first compound 0.012 µg/mL	first compound 0.024 µg/mL	first compound 0.048 µg/mL
partner 0.025 µg/mL	0.844	0.793	0.642
partner 0.2 µg/mL	0	0	0

fitness
Conditions	first compound 0.012 µg/mL	first compound 0.024 µg/mL	first compound 0.048 µg/mL	first compound 0.375 µg/mL	first compound 0.75 µg/mL	first compound 1.5 µg/mL
partner 0.025 µg/mL	–	–	–	0.0932	0.0627	0.0877
partner 0.05 µg/mL	0.729	0.687	0.46	0.077	0.103	0.113
partner 0.1 µg/mL	0.472	0.429	0.272	0.102	0.102	0.14

CC(=O)Oc1ccccc1C(=O)O [Acetylsalicylic acid] + CC1=C(C(=O)O)N2C(=O)[C@@H](NC(=O)[C@H](N)c3ccccc3)[C@H]2SC1 [Cephalexin]
fitness, one replicate
Conditions	first compound 250 µg/mL	first compound 500 µg/mL	first compound 1000 µg/mL
partner 0.125 µg/mL	0.955	0.996	0.935
partner 0.25 µg/mL	0.931	0.961	0.913
partner 0.5 µg/mL	0.923	0.932	0.92

fitness
Conditions	first compound 250 µg/mL	first compound 500 µg/mL	first compound 1000 µg/mL
partner 1 µg/mL	0.902	0.89	0.727
partner 2 µg/mL	0.611	–	0.391
partner 4 µg/mL	0.0549	0.0473	0.0319

C[C@H]1c2cccc(O)c2C(=O)C2=C(O)[C@]3(O)C(=O)C(C(N)=O)=C(O)[C@@H](N(C)C)[C@@H]3[C@@H](O)[C@@H]21 [Doxycycline] + CO/N=C(\C(=O)N[C@@H]1C(=O)N2C(C(=O)[O-])=C(C[N+]3(C)CCCC3)CS[C@H]12)c1csc(N)n1 [Cefepime]
fitness, one replicate
Conditions	first compound 0.003875 µg/mL	first compound 0.00775 µg/mL	first compound 0.031 µg/mL	first compound 0.062 µg/mL
partner 0.0078 µg/mL	≥ 1	≥ 1	0.936	0.84
partner 0.0155 µg/mL	≥ 1	0.991	0.888	0.779
partner 0.031 µg/mL	0.637	0.783	0.834	0.684

fitness
Conditions	partner 0.007 µg/mL	partner 0.0078 µg/mL	partner 0.014 µg/mL	partner 0.0155 µg/mL	partner 0.028 µg/mL	partner 0.031 µg/mL
first compound 0.0155 µg/mL	0.944	≥ 1	0.934	0.974	0.858	0.882
first compound 0.031 µg/mL	0.951	–	0.938	–	0.88	–

CC(=O)Oc1ccccc1C(=O)O [Acetylsalicylic acid] + Clc1ccc(COC(Cn2ccnc2)c2ccc(Cl)cc2Cl)c(Cl)c1 [Miconazole]
fitness
Conditions	partner 1.073 µg/mL	partner 1.25 µg/mL	partner 2.145 µg/mL	partner 2.5 µg/mL	partner 4.29 µg/mL	partner 5 µg/mL
first compound 250 µg/mL	≥ 1	0.902	0.943	0.863	0.9	0.937
first compound 500 µg/mL	≥ 1	0.816	0.918	0.772	0.858	0.844
first compound 1000 µg/mL	≥ 1	0.643	0.957	0.589	0.875	0.656

CC(=O)Oc1ccccc1C(=O)O [Acetylsalicylic acid] + C[C@@H](O)[C@H]1C(=O)N2C(C(=O)O)=C(SCCNC=N)C[C@H]12 [Imipenem]
fitness
Conditions	partner 0.005 µg/mL	partner 0.0065 µg/mL	partner 0.01 µg/mL	partner 0.013 µg/mL	partner 0.02 µg/mL	partner 0.026 µg/mL
first compound 250 µg/mL	0.948	0.983	0.898	0.953	0.912	0.914
first compound 500 µg/mL	0.956	0.969	0.954	0.993	0.955	0.912
first compound 1000 µg/mL	0.856	0.868	0.85	0.943	0.813	0.907

CC(=O)Oc1ccccc1C(=O)O [Acetylsalicylic acid] + CN[C@@H]1[C@H](O[C@H]2[C@H](O[C@H]3[C@H](O)[C@@H](O)[C@H](N=C(N)N)[C@@H](O)[C@@H]3N=C(N)N)O[C@@H](C)[C@]2(O)C=O)O[C@@H](CO)[C@H](O)[C@H]1O [Streptomycin]
fitness
Conditions	first compound 250 µg/mL	first compound 500 µg/mL	first compound 1000 µg/mL
partner 2 µg/mL	0.954	0.928	0.806
partner 4 µg/mL	0.977	0.892	–
partner 8 µg/mL	0.929	0.869	–

partner 16 µg/mL, one replicate
Conditions	fitness
first compound 250 µg/mL	0.772
first compound 500 µg/mL	0.605
first compound 1000 µg/mL	0.159
